Values of other authors, collected in patent US9271991B2, “Trimegestone (TMG) for treatment of preterm birth” (Dignity Health, priority 2010, dated 2016).
“Also recorded” adds a separate entry of the source.

Key:
[1] = tested on: mineralocorticoid receptors (MR); conditions: cited from earlier work
[2] = tested on: estrogenic activity in the uterine endometrium; conditions: in vivo; cited from earlier work
androgen receptor = biological target: T1, androgen receptor (Homo sapiens, UniProt P10275); conditions: cited from earlier work
T1 sequence (P10275 1-920): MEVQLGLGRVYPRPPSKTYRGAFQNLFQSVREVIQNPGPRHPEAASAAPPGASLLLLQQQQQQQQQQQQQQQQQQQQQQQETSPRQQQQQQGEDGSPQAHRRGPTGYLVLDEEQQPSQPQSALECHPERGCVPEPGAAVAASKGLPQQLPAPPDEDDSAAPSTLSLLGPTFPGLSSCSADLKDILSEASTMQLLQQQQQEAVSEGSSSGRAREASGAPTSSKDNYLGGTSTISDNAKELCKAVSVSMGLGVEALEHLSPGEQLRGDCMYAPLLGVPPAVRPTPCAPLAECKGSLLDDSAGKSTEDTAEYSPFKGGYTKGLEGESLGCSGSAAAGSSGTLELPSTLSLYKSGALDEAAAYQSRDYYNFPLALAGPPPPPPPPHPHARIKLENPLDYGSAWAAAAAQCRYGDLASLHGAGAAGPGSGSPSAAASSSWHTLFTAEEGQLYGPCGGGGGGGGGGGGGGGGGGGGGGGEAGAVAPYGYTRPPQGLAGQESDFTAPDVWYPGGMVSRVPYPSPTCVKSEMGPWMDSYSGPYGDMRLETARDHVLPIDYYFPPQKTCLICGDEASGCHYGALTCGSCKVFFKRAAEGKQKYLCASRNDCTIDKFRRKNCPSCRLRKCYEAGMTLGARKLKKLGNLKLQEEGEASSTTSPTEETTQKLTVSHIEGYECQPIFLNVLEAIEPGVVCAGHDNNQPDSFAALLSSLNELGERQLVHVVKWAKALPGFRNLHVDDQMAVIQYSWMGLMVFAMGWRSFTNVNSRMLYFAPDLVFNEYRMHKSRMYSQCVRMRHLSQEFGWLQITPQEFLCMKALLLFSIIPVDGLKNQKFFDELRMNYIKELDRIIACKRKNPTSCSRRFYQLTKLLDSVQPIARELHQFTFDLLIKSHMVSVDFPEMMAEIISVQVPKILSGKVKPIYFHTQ

[3] = biological target: T2, progesterone receptor (PR) (Homo sapiens, UniProt P06401); conditions: cited from earlier work
T2 sequence (P06401 1-933): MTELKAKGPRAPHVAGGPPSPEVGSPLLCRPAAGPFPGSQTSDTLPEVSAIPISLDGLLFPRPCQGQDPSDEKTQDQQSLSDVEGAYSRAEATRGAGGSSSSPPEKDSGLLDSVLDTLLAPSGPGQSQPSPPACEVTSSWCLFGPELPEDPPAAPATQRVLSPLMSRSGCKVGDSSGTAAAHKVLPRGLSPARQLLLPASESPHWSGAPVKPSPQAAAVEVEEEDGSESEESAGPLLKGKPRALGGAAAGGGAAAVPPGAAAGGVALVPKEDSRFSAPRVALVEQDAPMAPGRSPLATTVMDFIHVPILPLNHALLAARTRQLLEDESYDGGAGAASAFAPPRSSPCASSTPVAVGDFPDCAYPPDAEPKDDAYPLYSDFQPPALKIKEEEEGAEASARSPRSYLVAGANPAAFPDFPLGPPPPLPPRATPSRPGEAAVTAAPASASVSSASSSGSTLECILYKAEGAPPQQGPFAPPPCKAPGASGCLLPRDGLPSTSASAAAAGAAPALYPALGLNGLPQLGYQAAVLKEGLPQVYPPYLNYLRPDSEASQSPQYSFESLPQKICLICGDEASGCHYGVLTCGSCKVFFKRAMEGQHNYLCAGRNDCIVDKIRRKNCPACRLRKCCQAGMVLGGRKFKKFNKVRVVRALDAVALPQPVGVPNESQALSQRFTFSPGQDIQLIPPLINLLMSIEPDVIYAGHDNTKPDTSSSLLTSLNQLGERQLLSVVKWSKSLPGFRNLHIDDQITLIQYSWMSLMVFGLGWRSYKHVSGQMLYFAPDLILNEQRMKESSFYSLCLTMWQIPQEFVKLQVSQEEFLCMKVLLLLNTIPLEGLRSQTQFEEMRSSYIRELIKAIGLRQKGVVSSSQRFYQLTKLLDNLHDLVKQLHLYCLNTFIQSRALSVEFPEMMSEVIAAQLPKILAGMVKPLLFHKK

estrogen receptor = biological target: T3, estrogen receptor (Homo sapiens, UniProt P03372); conditions: cited from earlier work
T3 sequence (P03372 1-595): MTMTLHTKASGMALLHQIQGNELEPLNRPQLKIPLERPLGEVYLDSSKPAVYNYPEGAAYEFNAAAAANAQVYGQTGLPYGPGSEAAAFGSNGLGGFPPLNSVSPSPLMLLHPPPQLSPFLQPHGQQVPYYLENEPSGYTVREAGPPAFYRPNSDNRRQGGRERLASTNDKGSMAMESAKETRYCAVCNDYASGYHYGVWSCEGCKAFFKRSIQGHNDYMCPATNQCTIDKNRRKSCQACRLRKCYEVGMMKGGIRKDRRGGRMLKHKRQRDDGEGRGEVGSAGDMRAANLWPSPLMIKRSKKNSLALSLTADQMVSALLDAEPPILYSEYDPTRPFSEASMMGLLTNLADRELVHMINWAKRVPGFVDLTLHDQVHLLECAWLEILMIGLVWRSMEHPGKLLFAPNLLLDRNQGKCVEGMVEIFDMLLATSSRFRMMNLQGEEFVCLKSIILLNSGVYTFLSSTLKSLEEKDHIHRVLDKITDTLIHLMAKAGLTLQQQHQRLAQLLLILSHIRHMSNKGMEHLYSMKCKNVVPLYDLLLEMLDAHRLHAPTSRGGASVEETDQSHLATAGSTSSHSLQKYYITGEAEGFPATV

In the case of `C[C@H](O)C(=O)[C@@]1(C)CC[C@H]2[C@@H]3CCC4=CC(=O)CCC4=C3CC[C@@]21C` [TMG, trimegestone], the “affinity to the mineralocorticoid receptor” value [1] is listed as “low affinity”, the “relative binding affinity (RBA) for TMG-mineralocorticoid receptors (MR)” value [1] is listed as 42 and the “antagonism of estrogenic activity in the uterine endometrium versus reference progestins” value [2] is listed as “highest level of estrogenic activity antagonism; also recorded: most potent antagonist of estrogenic activity”. For the same compound, the “affinity to the androgen receptor” value (androgen receptor) was “low affinity”, the “relative binding affinity (RBA) for TMG-PR interactions” value [3] was 588 and the “affinity for progesterone receptor (PR), higher than P4” value ([3]; relative to P4) was 6 fold. For the same compound, the “potency, higher than P4” value ([3]; relative to P4) was “approximately 6 times”, the “affinity for the human progesterone receptor, greater than progesterone (P4)” value ([3]; relative to P4, human progesterone receptor) was 6 times and the “affinity for the estrogen receptor” value (estrogen receptor) was “no measurable affinity”.
